Patent US7125881B2, “Use of pyrimidine—or triazine—2 carbonitiles for treating diseases associated with cysteine prostease activity and novel pyrimidine-2-carbonitile derivatives” (AstraZeneca AB, priority 2002, dated 2006)
Structures can show the parent of a compound that is named as a salt.

Row | Structure (SMILES) | melting point [°C]
1 | COc1c(Nc2ccc(Cl)cc2)nc(C#N)nc1N1CCNCC1 (as salt: trifluoroacetate) [Example 44, 4-[(4-Chlorophenyl)amino]-5-methoxy-6-piperazin-1-ylpyrimidine-2-carbonitrile] | 230
2 | COc1c(Nc2ccc(Cl)cc2)nc(C#N)nc1N1CC[C@H](N)C1 (as salt: trifluoroacetate) [Example 46, 4-[(3S)-3-Aminopyrrolidin-1-yl]-6-[(4-chlorophenyl)amino]-5-methoxypyrimidine-2-carbonitrile] | 345 to 347
3 | COc1c(Nc2ccc(Cl)cc2)nc(C#N)nc1N1CCN(CCCN(C)C)CC1 (as salt: trifluoroacetate) [Example 47, 4-[(4-Chlorophenyl)amino]-6-{4-[3-(dimethylamino)propyl]piperazin-1-yl}-5-methoxypyrimidine-2-carbonitrile] | 210 to 212
4 | COc1c(Nc2ccc(Cl)cc2)nc(C#N)nc1N1CCOCC1 [Example 45, 4-[(4-Chlorophenyl)amino]-5-methoxy-6-morpholin-4-ylpyrimidine-2-carbonitrile] | 176
5 | COc1c(Nc2ccc(Cl)cc2)nc(C#N)nc1N(C)C [Example 48, 4-[(4-Chlorophenyl)amino]-6-(dimethylamino)5-methoxypyrimidine-2-carbonitrile] | 173
6 | COc1c(Nc2ccc(Cl)cc2)nc(C#N)nc1N1CCNC(=O)C1 [Example 49, 4-[(4-Chlorophenyl)amino]-5-methoxy-6(3-oxopiperazin-1-yl)pyrimidine-2-carbonitrile] | 244
7 | N#Cc1nc(Nc2ccc(Cl)cc2)c(N)c(N2CCOCC2)n1 [Example 52, 5-Amino-4-[(4-chlorophenyl)amino]-6-morpholin-4-ylpyrimidine-2-carbonitrile] | 253 to 254
8 | CCNc1nc(C#N)nc(Nc2ccc(Cl)cc2)c1N [Example 53, 5-Amino-4[(4-Chlorophenyl)amino]-6(ethylamino)pyrimidine-2-carbonitrile] | 211 to 212
